Measurements: patent US11919898B2, “Crystal form of azaindole derivative and use thereof” (Wuxi Life Fountain Biotech Co., Ltd, priority 2020, dated 2024)
Read-outs that look alike come from different tables or passages of the source.

What was measured:
[1] = Solubility test in media of various pH (water, SGF, FaSSIF, FeSSIF); type: physicochemical; conditions: for solubility at 24 h: read-out: Solubility (mg/ml)_24 h
Method: The solubility of the crystal form A of the compound of Formula (II) in 4 media with different pH values was tested. About 10 mg of the crystal form A of the compound of Formula (II) was weighed, and then 5.0 mL of different media (water, SGF, FaSSIF, and FeSSIF) were added respectively, to form a suspension. A magnetron was added to the suspension and the suspension was stirred on a magnetic stirrer for 2 hrs, and a sample was taken and centrifuged after 4 hrs. The sample in the upper layer was determined for concentration by HPLC and determined for the pH value.
• FaSSIF: (1). 0.042 g of sodium hydroxide, 0.3438 g of sodium dihydrogen phosphate and 0.6186 g of sodium chloride were weighed, added to 90 mL of purified water and mixed well. The solution was adjusted to pH 6.5 with 1 N hydrochloric acid or 1 N sodium hydroxide, and made up to 100 mL with purified water. (2). 0.224 g of commercially available powder of FaSSIF/FeSSIF/FaSSGF was added to 50 mL of the buffer, stirred until dissolved, and made up to 100 mL with purified water. The prepared buffer was left to stand at room temperature for 2 hrs, and observed to be slightly milky white, which was ready for use (simulating intestinal juice in human before eating). • FeSSIF: (1). 0.404 g of sodium hydroxide, and 0.865 g of glacial acetic acid, 1.1874 g of sodium chloride were weighed and added to 90 mL of purified water and mixed well. The solution was adjusted to pH 5.0 with 1 N hydrochloric acid or 1 N sodium hydroxide, and made up to 100 mL with purified water. (2). 1.12 g of commercially available powder of FaSSIF/FeSSIF/FaSSGF was added to 50 mL of the buffer, stirred until dissolved, and made up to 100 mL with purified water. The prepared buffer was left to stand at room temperature for 2 hrs, and observed to be a clear liquid, which was ready for use (simulating intestinal juice in human after eating). • FaSSGF (SGF): (1). 0.2 g of sodium chloride was weighed and added to 90 mL of purified water and mixed well. The solution was adjusted to pH 1.8 with 1 N hydrochloric acid, made up to 100 mL with purified water, and left to stand until it was naturally cooled to room temperature (simulating human gastric juice before eating).

[2] = Solid stability test (high temperature, high humidity, light, accelerated); type: physicochemical
Method: High Performance Liquid Chromatography (HPLC) of the Present Invention [table] Experimental method: 12 parallel samples of the crystal form A of the compound of formula (II) were weighed in an amount of about 1 g each. Each sample was fed to a double-layer LDPE bag, and each layer of the LDPE bag was tied and sealed. […] The photostability experiment was carried out as described in the Chinese Pharmacopoeia and ICH Q1B. The samples were irradiated with visible light and UV light.

[3] = Pharmacokinetic evaluation in rats (intravenous and oral); type: in vivo, male SD rats
Method: For agents for intravenous administration, 30% (v/v) PEG400 in purified water was as a vehicle. An appropriate amount of compound was accurately weighed into a glass flask, 30 vol % of PEG400 of the container volume was slowly added to the container with stirring, and then the remaining 70 vol % of pure water was added to make up to the final volume and stirred continuously until a clear solution was obtained. The solution was filtered through a […] filter membrane, and stored at room temperature for later use. The agents for intravenous administration were formulated on the day of administration, and injected into male SD rats via tail vein (fasted overnight before administration) at a dose of 0.5 mg/kg. Approximately 0.18 mL of blood was collected from the jugular vein or tail vein at 0.0833, 0.25, 0.5, 1.0, 2.0, 4.0, 8.0 and 24 hrs after intravenous administration. The corresponding test compound in the vehicle was administered by gavage to male SD rats (fasted overnight before administration) at a dose of 5 mg/kg. The experimental conditions are detailed in Table 20. Blood was collected from the jugular or tail vein at 0.0833, 0.25, 0.5, 1.0, 2.0, 4.0, 6.0, 8.0 and 24 hrs after oral administration. The blood was fed to an anticoagulation tube supplemented with EDTA-K2, and centrifuged to separate plasma. The plasma concentrations were determined by LC-MS/MS, and the relevant pharmacokinetic parameters were calculated by the linear logarithmic trapezoid method of non-compartmental model using WinNonlm™ Version 6.3 (Pharsight, Mountain View, CA) pharmacokinetic software.

[4] = Acceleration experiment (40° C./relative humidity 75%, open), 1 month
[5] = Acceleration experiment (40° C./relative humidity 75%, open), 2 month
[6] = Acceleration experiment (40° C./relative humidity 75%, open), 3 month
[7] = High humidity (room temperature/relative humidity 92.5%, open), Day 5
[8] = High humidity (room temperature/relative humidity 92.5%, open), Day 10
[9] = High humidity (room temperature/relative humidity 92.5%, open), Day 30
[10] = High temperature (60° C., open), Day 5
[11] = High temperature (60° C., open), Day 10
[12] = High temperature (60° C., open), Day 30
[13] = Light irradiation (1.2 × 10^6 Lux·hr / near ultraviolet 200 w·hr/m^2, open 10 days), light irradiation sample
[14] = Light irradiation test, sample in the dark
[15] = intravenous, 0.5 mg/kg, male SD rats
[16] = oral (gavage), 5 mg/kg, male SD rats
[17] = rat, plasma, PO, 5 mg/kg, male SD rats (table title says mice)

solubility at 24 h ([1]; SGF (FaSSGF), pH 1.25, simulated gastric fluid, thermodynamic from solid, SGF, pH (24 h) 1.25, suspension): 0.112 mg/mL
solubility at 24 h ([1]; pH 4.89, thermodynamic from solid, FeSSIF, pH (24 h) 4.89, suspension): 0.252 mg/mL
solubility at 24 h ([1]; pH 5.55, thermodynamic from solid, FaSSIF, pH (24 h) 5.55, suspension): 0.004 mg/mL
Solubility in words ([1]; simulated gastric juice before eating in human (SGF)): good
Solubility in words ([1]; simulated intestinal juice before eating (FaSSIF)): poor
Solubility in words ([1]; simulated intestinal juice of the small intestine after eating in human (FeSSIF)): good
Solubility in words ([1]; water): hard to dissolve in water
solubility at 24 h ([1]; water, pH 2.42, water, thermodynamic from solid): 0.009 mg/mL
Content (%) [2, 4]: 99.7%
Total impurity (%) [2, 4]: 0.67%
Content (%) [2, 5]: 99.7%
Total impurity (%) [2, 5]: 0.69%
Content (%) [2, 6]: 99.9%
Total impurity (%) [2, 6]: 0.68%
Content (%) ([2]; Day 0): 99.8%
Total impurity (%) ([2]; Day 0): 0.71%
Content (%) [2, 7]: 99.6%
Total impurity (%) [2, 7]: 0.75%
Content (%) [2, 8]: 99.8%
Total impurity (%) [2, 8]: 0.71%
Content (%) [2, 9]: 98.9%
Total impurity (%) [2, 9]: 0.65%
Content (%) [2, 10]: 99.6%
Total impurity (%) [2, 10]: 0.78%
Content (%) [2, 11]: 99.9%
Total impurity (%) [2, 11]: 0.76%
Content (%) [2, 12]: 98.5%
Total impurity (%) [2, 12]: 0.80%
Content (%) [2, 13]: 99.8%
Total impurity (%) [2, 13]: 0.76%
Content (%) [2, 14]: 99.8%
Total impurity (%) [2, 14]: 0.79%
Drug exposure [3, 15]: high level
Volume of distribution [3, 15]: high
clearance [3, 15]: moderately low
half-life [3, 15]: moderate
Oral exposure [3, 16]: high level
Peak time [3, 16]: rapid
AUC(0-t) ([3]; rat, plasma, IV, 0.5 mg/kg, male SD rats (table title says mice)): 1.01 µM·h
clearance ([3]; rat, plasma, IV, 0.5 mg/kg, male SD rats (table title says mice), read-out: Cl): 18.4 mL/min/kg
half-life ([3]; rat, plasma, IV, 0.5 mg/kg, male SD rats (table title says mice), read-out: T1/2 (converted)): 79.2 min
Vd ([3]; rat, plasma, IV, 0.5 mg/kg, male SD rats (table title says mice), read-out: Vdss): 1.87 L/kg
AUC(0-t) [3, 17]: 5.18 µM·h
Cmax [3, 17]: 1960 nM
Tmax [3, 17]: 30 min
SMILES: COc1cc(OC)c(F)c(Cc2c[nH]c3ncc(-c4cnn(CCO)c4)cc23)c1F.Cl
Solid stability in words ([2]; accelerated conditions and affecting factors): very stable, and no obvious unknown impurities are formed
Oral exposure level compared with other salt crystal forms [3, 16]: higher than that of the crystal form G of the compound of Formula (III), and the crystal form J of the compound of Formula (III)
